Measured values: patent US20200038416A1, “METHODS OF TREATING CARDIAC CONDUCTION DEFECTS USING AMINOSTEROL COMPOSITIONS” (Enterin, Inc., priority 2018, published 2020)
Values joined by “and” are separate entries in the source; they are usually repeats but may differ in a detail not shown here. Identical values can stand only once.

Tests used:
patients with PD = assay: CNS symptoms in Stage 2 (UPDRS, MMSE, PDHQ, BDI-II, hallucinations); format: in vivo, human; details: for patients whose hallucinations or delusions improved or disappeared during treatment: 6 patients with hallucinations (5) or delusions (1) at baseline
Description: Exploratory end-points, in addition to constipation, included for example, (i) depression assessed using the Beck Depression Inventory (BDI-II) (Steer et al. 2000) and Unified Parkinson's Disease Rating Scale (UPDRS); (ii) cognition assessed using the Mini Mental State Examination (MMSE), Unified Parkinson's Disease Rating Scale (UPDRS), and Trail Making Test (TMT); (iii) sleep and REM-behavior disorder (RBD) using a daily sleep diary, I-Button Temperature Assessment, a REM sleep behavior disorder (RBD) questionnaire (RBDQ) (Stiasny-Kolster et al. 2007), and the UPDRS; (iv) hallucinations assessed using the PD hallucinations questionnaire (PDHQ) (Papapetropoulos et al. 2008), the UPDRS, and direct questioning; (v) fatigue using the Parkinson's Disease Fatigue Scale (PFS-16) and the UPDRS; (vi) motor functions using the UPDRS; and (vii) non-motor functions using the UPDRS.
Assessments were made at baseline and at the end of the fixed dose and washout periods. Circadian system status was evaluated by continuously monitoring wrist skin temperature (Thermochron iButton DS1921H; Maxim, Dallas) following published procedures (Sarabia et al. 2008).
An exploratory analysis was done with respect to the sleep data, the body temperature data, mood, fatigue, hallucinations, cognition and other motor and non-motor symptoms of PD. Continuous measurements within a subject were compared with a paired t-test and continuous measurements between subject groups were compared with a two-group t-test. Categorical data were compared with a chi-squared test or a Fisher's exact test if the expected cell counts are too small for a chi-squared test.
CNS symptoms were evaluated at baseline and at the end of the fixed dose period and the wash-out period (Table 12). Total UPDRS score was 64.4 at baseline, 60.6 at the end of the fixed dose period and 55.7 at the end of the wash-out period (p=0.002); similarly, the motor component of the UPDRS improved from 35.3 at baseline to 33.3 at the end of fixed dose to 30.2 at the end of wash-out (p=0.006). MMSE improved from 28.4 at baseline to 28.7 during treatment and to 29.3 during wash-out (p=0.0006). […] PDHQ improved from 1.3 at baseline to 1.8 during treatment and 0.9 during wash-out (p=0.03). Hallucinations were reported by 5 patients at baseline and delusions in 1 patient. […] The frequency of arm or leg thrashing reported in the sleep diary diminished progressively from 2.2 episodes/week at baseline to 0 at maximal dose. […] Unlike stool-related indices, the improvement in many CNS symptoms persisted during wash-out.

[1] = system: patients with PD and constipation; assay: Phase 2 trial safety and adverse event profile (Stages 1 and 2); format: in vivo, human
Protocol: Tolerability limits included diarrhea or vomiting.
In Stage 2, 34 patients were evaluated.

[2] = Stage 1, 10 dosed, unrelated to ENT-01

SMILES: CC(C)[C@@H](CC[C@@H](C)[C@H]1CC[C@H]2[C@@H]3[C@H](O)C[C@H]4C[C@@H](NCCCNCCCCN)CC[C@]4(C)[C@H]3CC[C@]12C)OS(=O)(=O)O (single isomer, unassigned) [squalamine (ENT-01), squalamine]
- patients whose hallucinations or delusions improved or disappeared during treatment (patients with PD): five and 5 of 6
- patients whose hallucinations or delusions improved or disappeared during treatment (patients with PD; listed as ENT-01): five
- improvement in Part 1 of the UPDRS (patients with PD; baseline 11.6 to wash-out 9.5): ~20%
- time hallucinations/delusions did not return following discontinuation (patients with PD; single patients): 4 weeks and 2 weeks
- share of AEs confined to the GI tract ([1]; Stage 1): 88%
- patients with diarrhea ([1]; Stage 1, 4/10): 40%
- patients with nausea ([1]; Stage 1, 4/10): 40%
- Abdominal pain, Mild: patients with adverse event ([1]; Stage 1, 10 dosed): 2 (20) n, %
- Abdominal pain, Moderate: patients with adverse event ([1]; Stage 1, 10 dosed): 3 (30) n, %
- Blood in urine, Moderate: patients with adverse event ([1]; Stage 1, 10 dosed): 0 n, %
- Diarrhea, Mild: patients with adverse event ([1]; Stage 1, 10 dosed): 1 (10) n, %
- Diarrhea, Moderate: patients with adverse event ([1]; Stage 1, 10 dosed): 3 (30) n, %
- Diarrhea, Severe: patients with adverse event ([1]; Stage 1, 10 dosed): 0 n, %
- Difficulty falling asleep, Mild: patients with adverse event ([1]; Stage 1, 10 dosed): 0 n, %
- Difficulty falling asleep, Moderate: patients with adverse event ([1]; Stage 1, 10 dosed): 0 n, %
- Dizziness, Mild: patients with adverse event ([1]; Stage 1, 10 dosed): 0 n, %
- Dizziness, Moderate: patients with adverse event ([1]; Stage 1, 10 dosed): 0 n, %
- Eye infection, Mild: patients with adverse event ([1]; Stage 1, 10 dosed): 0 n, %
- Eye infection, Moderate: patients with adverse event ([1]; Stage 1, 10 dosed): 0 n, %
- Flatulence, Mild: patients with adverse event ([1]; Stage 1, 10 dosed): 2 (20) n, %
- Flatulence, Moderate: patients with adverse event ([1]; Stage 1, 10 dosed): 0 n, %
- Headache, Mild: patients with adverse event ([1]; Stage 1, 10 dosed): 1 (10) n, %
- Headache, Moderate: patients with adverse event ([1]; Stage 1, 10 dosed): 0 n, %
- Increased urinary frequency, Mild: patients with adverse event ([1]; Stage 1, 10 dosed): 0 n, %
- Increased urinary frequency, Moderate: patients with adverse event ([1]; Stage 1, 10 dosed): 0 n, %
- Loss of appetite, Moderate: patients with adverse event ([1]; Stage 1, 10 dosed): 0 n, %
- Lower GI bleed, Severe: patients with adverse event ([1]; Stage 1, 10 dosed): 0 n, %
- Nausea, Mild: patients with adverse event ([1]; Stage 1, 10 dosed): 4 (40) n, %
- Nausea, Moderate: patients with adverse event ([1]; Stage 1, 10 dosed): 0 n, %
- Skin lesions-rash, Mild: patients with adverse event ([1]; Stage 1, 10 dosed): 0 n, %
- Skin lesions-rash, Moderate: patients with adverse event ([1]; Stage 1, 10 dosed): 0 n, %
- Urinary retention, Mild: patients with adverse event ([1]; Stage 1, 10 dosed): 0 n, %
- Urinary retention, Moderate: patients with adverse event ([1]; Stage 1, 10 dosed): 0 n, %
- Urinary tract infection, Mild: patients with adverse event ([1]; Stage 1, 10 dosed): 0 n, %
- Urinary tract infection, Moderate: patients with adverse event ([1]; Stage 1, 10 dosed): 0 n, %
- Vomiting, Mild: patients with adverse event ([1]; Stage 1, 10 dosed): 1 (10) n, %
- Vomiting, Moderate: patients with adverse event ([1]; Stage 1, 10 dosed): 0 n, %
- Worsening acid reflux, Mild: patients with adverse event ([1]; Stage 1, 10 dosed): 0 n, %
- Worsening acid reflux, Moderate: patients with adverse event ([1]; Stage 1, 10 dosed): 0 n, %
- Worsening hemorrhoid, Mild: patients with adverse event ([1]; Stage 1, 10 dosed): 0 n, %
- Worsening hemorrhoid, Moderate: patients with adverse event ([1]; Stage 1, 10 dosed): 0 n, %
- Blood in urine, Mild: patients with adverse event [1, 2]: 1 (10) n, %
- Loss of appetite, Mild: patients with adverse event [1, 2]: 1 (10) n, %
- share of AEs confined to the GI tract ([1]; Stage 2): 63%
- Abdominal pain, Mild: patients with adverse event ([1]; Stage 2, 34 dosed): 4 n
- Abdominal pain, Moderate: patients with adverse event ([1]; Stage 2, 34 dosed): 2 n
- Blood in urine, Mild: patients with adverse event ([1]; Stage 2, 34 dosed): 0 n
- Blood in urine, Moderate: patients with adverse event ([1]; Stage 2, 34 dosed): 0 n
- Diarrhea, Mild: patients with adverse event ([1]; Stage 2, 34 dosed): 12 n
- Diarrhea, Moderate: patients with adverse event ([1]; Stage 2, 34 dosed): 2 n
- Diarrhea, Severe: patients with adverse event ([1]; Stage 2, 34 dosed): 1 n
- Difficulty falling asleep, Mild: patients with adverse event ([1]; Stage 2, 34 dosed): 1 n
- Difficulty falling asleep, Moderate: patients with adverse event ([1]; Stage 2, 34 dosed): 0 n
- Dizziness, Mild: patients with adverse event ([1]; Stage 2, 34 dosed): 7 n
- Dizziness, Moderate: patients with adverse event ([1]; Stage 2, 34 dosed): 1 n
- Eye infection, Mild: patients with adverse event ([1]; Stage 2, 34 dosed): 1 n
- Eye infection, Moderate: patients with adverse event ([1]; Stage 2, 34 dosed): 0 n
- Flatulence, Mild: patients with adverse event ([1]; Stage 2, 34 dosed): 1 n
- Flatulence, Moderate: patients with adverse event ([1]; Stage 2, 34 dosed): 0 n
- Headache, Mild: patients with adverse event ([1]; Stage 2, 34 dosed): 3 n
- Headache, Moderate: patients with adverse event ([1]; Stage 2, 34 dosed): 0 n
- Increased urinary frequency, Mild: patients with adverse event ([1]; Stage 2, 34 dosed): 2 n
- Increased urinary frequency, Moderate: patients with adverse event ([1]; Stage 2, 34 dosed): 0 n
- Loss of appetite, Mild: patients with adverse event ([1]; Stage 2, 34 dosed): 0 n
- Loss of appetite, Moderate: patients with adverse event ([1]; Stage 2, 34 dosed): 0 n
- Nausea, Mild: patients with adverse event ([1]; Stage 2, 34 dosed): 18 n
- Nausea, Moderate: patients with adverse event ([1]; Stage 2, 34 dosed): 1 n
- Skin lesions-rash, Mild: patients with adverse event ([1]; Stage 2, 34 dosed): 3 n
- Skin lesions-rash, Moderate: patients with adverse event ([1]; Stage 2, 34 dosed): 0 n
- Urinary retention, Mild: patients with adverse event ([1]; Stage 2, 34 dosed): 1 n
- Urinary retention, Moderate: patients with adverse event ([1]; Stage 2, 34 dosed): 0 n
- Urinary tract infection, Mild: patients with adverse event ([1]; Stage 2, 34 dosed): 1 n
- Urinary tract infection, Moderate: patients with adverse event ([1]; Stage 2, 34 dosed): 2 n
- Vomiting, Mild: patients with adverse event ([1]; Stage 2, 34 dosed): 2 n
- Vomiting, Moderate: patients with adverse event ([1]; Stage 2, 34 dosed): 0 n
- Worsening acid reflux, Mild: patients with adverse event ([1]; Stage 2, 34 dosed): 4 n
- Worsening acid reflux, Moderate: patients with adverse event ([1]; Stage 2, 34 dosed): 0 n
- Worsening hemorrhoid, Mild: patients with adverse event ([1]; Stage 2, 34 dosed): 1 n
- Worsening hemorrhoid, Moderate: patients with adverse event ([1]; Stage 2, 34 dosed): 0 n
- Lower GI bleed, Severe: patients with adverse event ([1]; Stage 2, colonic diverticulosis, polyp, patient on aspirin, Plavix and naproxen, unrelated to ENT-01): 1 n
